The text below walks through data of US20250221988A1 (Cullgen (Shanghai), Inc., priority 2022, published 2025).

Series [1] deals with NCI-H1155 cells. The series is described as follows: Cell viability assay in NCI-H1155 cells. Type of series: cell-based. The note with it: Homo sapiens, read-out: NCI-H115 IC50. The procedure: (§1) Cell Culture: RS4;11, MV4;11, MOLM-13 and other cells were cultured at 37° C. with 5% CO2 in RPMI 1640 or DMEM Medium supplemented with 10% fetal bovine serum. Cells were authenticated using the short tandem repeat (STR) assays. Mycoplasma test results were negative.
(§2) Cell viability assays: Cells were seeded at a density of 5000 cells per well in 96-well assay plates and treated with test compounds following a 8-point or 12-point 3-fold serial dilution. Three days later, cell viability was determined using the CellTiter-Glo assay kit according to the manufacturer's instructions. The dose-response curves were determined and IC50 values were calculated using the GraphPad Prism software following a nonlinear regression (least squares fit) method.
(§3) The compounds were tested in HEL, 22RV1, NCI-H82 or NCI-H1155 cells.

For series [2], the system named is tested cell lines. The note with it: Matyskiela, Lu et al. 2016; cited from earlier work.
Series [3] concerns the target T1, GSPT1 (Homo sapiens, UniProt P15170+Q96SW2). Details: MOLM-13 cells were treated at indicated concentrations with compounds GS-729, GS-731, GS-697, and GS-788 for 16 hours prior to immunoblotting; endogenous in cells; host or cells: MOLM-13. The note with it: Matyskiela, Lu et al. 2016; cited from earlier work.
For series [4], the system named is MOLM-13 cells. The series is described as follows: Cell viability assay (CellTiter-Glo) in MOLM-13 cells. It is filed as cell-based. The following applies: Homo sapiens, 72 h; MOLM-13 cells, compound alone, three days; read-out: MOLM-13 IC50.
Series [5] deals with HEL cells. The series is described as follows: Cell viability assay in HEL cells. Type of series: cell-based. The note with it: Homo sapiens. How it is done: as §1, §2, §3
For series [6], the system named is 22RV1 cells. The series is described as follows: Cell viability assay in 22RV1 cells. The note with it: Homo sapiens. It is filed as cell-based. How it is done:
as §1, §2, §3

Series [7] has as its system NCI-H82 cells. The series is described as follows: Cell viability assay in NCI-H82 cells. It is filed as cell-based. The following applies: Homo sapiens. How it is done: as §1, §2, §3
For series [8], the target named is T1, GSPT1. The series is described as follows: Immunoblotting of GSPT1 in MOLM-13 cells. Type of series: cell-based. Also noted: endogenous in cells; host or cells: MOLM-13. The note with it: indicated concentrations, 16 hours. How it is done:
as §1
Antibodies and reagents: Rabbit anti-FLT3 antibody (3462S) was purchased from Cell Signaling Technology. Rabbit anti-GSPT1 antibody (ab126090) was purchased from Abeam. HRP-conjugated anti-α-tubulin antibody was produced in house. Media and other cell culture reagents were purchased from Thermo Fisher. The CellTiter-Glo Luminescent Assay kit was purchased from Promega.
Immunoblotting: Cultured cells were washed with cold PBS once and lysed in cold RIPA buffer supplemented with protease inhibitors and phosphatase inhibitors (Beyotime Biotechnology). The solutions were then incubated at 4° C. for 30 minutes with gentle agitation to fully lyse cells. Cell lysates were centrifuged at 13,000 rpm for 10 minutes at 4° C. and pellets were discarded. Total protein concentrations in the lysates were determined by BCA assays (Beyotime Biotechnology). Cell lysates were mixed with Laemmli loading buffer to 1× and heated at 99° C. for 5 min. Proteins were resolved on SDS-PAGE and visualized by chemiluminescence. Images were taken by a ChemiDoc MP Imaging system (Bio-Rad). Protein bands were quantitated using the accompanied software provided by Bio-Rad.

T1 sequence (P15170 whole entry): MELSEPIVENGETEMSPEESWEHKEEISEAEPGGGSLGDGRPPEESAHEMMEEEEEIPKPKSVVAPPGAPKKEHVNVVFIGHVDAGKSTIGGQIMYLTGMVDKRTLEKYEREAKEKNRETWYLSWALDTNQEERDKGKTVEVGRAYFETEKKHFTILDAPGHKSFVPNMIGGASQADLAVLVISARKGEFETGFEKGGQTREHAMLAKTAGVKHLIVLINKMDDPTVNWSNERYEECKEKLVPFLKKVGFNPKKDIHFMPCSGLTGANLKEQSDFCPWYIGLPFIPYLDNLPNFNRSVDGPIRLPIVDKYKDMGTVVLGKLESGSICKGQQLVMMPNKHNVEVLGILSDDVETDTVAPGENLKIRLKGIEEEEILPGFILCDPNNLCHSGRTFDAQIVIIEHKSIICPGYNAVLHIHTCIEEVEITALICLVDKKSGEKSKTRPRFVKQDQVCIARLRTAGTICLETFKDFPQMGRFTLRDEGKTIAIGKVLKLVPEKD
T1 sequence (Q96SW2 whole entry): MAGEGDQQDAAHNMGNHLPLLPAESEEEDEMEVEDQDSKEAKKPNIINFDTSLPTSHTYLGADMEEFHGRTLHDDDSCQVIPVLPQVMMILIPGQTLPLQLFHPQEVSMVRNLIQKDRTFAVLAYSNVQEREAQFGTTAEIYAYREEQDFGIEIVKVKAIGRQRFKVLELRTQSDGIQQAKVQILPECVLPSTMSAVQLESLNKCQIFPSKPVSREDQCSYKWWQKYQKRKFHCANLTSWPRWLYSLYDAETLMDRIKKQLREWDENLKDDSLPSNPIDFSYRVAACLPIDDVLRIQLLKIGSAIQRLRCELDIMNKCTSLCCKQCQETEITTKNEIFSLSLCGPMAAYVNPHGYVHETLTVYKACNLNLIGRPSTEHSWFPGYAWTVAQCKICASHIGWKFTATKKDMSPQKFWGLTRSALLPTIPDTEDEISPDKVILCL
T1 sequence (Q16531 whole entry partner): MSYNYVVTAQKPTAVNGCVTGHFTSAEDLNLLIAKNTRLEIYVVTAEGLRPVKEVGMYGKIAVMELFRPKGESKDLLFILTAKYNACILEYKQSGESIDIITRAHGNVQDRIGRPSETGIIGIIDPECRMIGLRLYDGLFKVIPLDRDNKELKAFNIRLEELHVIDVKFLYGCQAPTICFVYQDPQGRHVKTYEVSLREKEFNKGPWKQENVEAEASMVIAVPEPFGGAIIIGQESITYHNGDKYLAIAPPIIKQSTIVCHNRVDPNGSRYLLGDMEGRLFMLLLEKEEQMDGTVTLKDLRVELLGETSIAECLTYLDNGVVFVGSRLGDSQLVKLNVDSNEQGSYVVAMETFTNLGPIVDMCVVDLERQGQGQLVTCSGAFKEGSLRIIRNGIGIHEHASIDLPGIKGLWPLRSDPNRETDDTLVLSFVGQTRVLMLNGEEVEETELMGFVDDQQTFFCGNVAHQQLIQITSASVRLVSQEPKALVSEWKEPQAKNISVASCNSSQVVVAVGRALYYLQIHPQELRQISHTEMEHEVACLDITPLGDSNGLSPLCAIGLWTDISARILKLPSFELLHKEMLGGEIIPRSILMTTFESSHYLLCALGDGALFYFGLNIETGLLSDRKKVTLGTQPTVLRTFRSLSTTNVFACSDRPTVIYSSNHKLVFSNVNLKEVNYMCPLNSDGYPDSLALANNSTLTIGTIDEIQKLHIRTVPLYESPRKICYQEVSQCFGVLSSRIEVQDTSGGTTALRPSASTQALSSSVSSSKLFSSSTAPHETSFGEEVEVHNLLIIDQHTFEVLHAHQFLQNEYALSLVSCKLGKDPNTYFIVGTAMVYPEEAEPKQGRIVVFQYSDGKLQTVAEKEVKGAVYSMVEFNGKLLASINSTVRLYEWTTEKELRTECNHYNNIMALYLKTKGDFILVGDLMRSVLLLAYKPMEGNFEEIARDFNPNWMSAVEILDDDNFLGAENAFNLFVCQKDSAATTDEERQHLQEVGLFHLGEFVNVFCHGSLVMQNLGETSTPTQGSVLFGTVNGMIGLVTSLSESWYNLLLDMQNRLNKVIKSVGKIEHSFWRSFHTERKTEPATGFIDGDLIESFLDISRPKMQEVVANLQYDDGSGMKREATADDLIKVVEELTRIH

As for `CNc1cccc(-c2cn([C@H]3C[C@H](CNc4ccc5c(c4)CN(C4CCC(=O)NC4=O)C5=O)C3)nc2C2CC2)n1` (relative stereo) [GS-811, 3-(5-(((Trans-3-(3-cyclopropyl-4-(6-(methylamino)pyridin-2-yl)-1H-pyrazol-1-yl)cyclobutyl)methyl)amino)-1-oxoisoindolin-2-yl)piperidine-2,6-dione], the IC50 in series [1] was in the range of 10 to 100 nM.

Regarding `Cc1ccc(NC(=O)NCc2ccc3c(c2)CN(C2CCC(=O)NC2=O)C3=O)cc1Cl` (stereo not drawn) [CC-885], the “toxicity in tested cell lines” value in series [2] is on record as “induced significant toxicity in the vast majority of tested cell lines”. For the same compound, the “cereblon-dependent degradation of GSPT1” value in series [3] was “led to cereblon-dependent degradation of GSPT1”.

In the case of `Cc1nc(-c2cn([C@H]3C[C@H](CNc4ccc5c(c4)CN([C@H]4CCC(=O)NC4=O)C5=O)C3)nc2C2CC2)ccc1F` [GS-800, (S)-3-(5-(((trans-3-(3-cyclopropyl-4-(5-fluoro-6-methylpyridin-2-yl)-1H-pyrazol-1-yl)cyclobutyl)methyl)amino)-1-oxoisoindolin-2-yl)piperidine-2,6-dione], the IC50 in series [4] is under 10 nM; in series [5] it was 10 to 100 nM; in series [6] it was under 10 nM; in series [7], under 10 nM.

Regarding `O=C1CCC(N2Cc3cc(NC[C@H]4C[C@H](n5cc(-c6ccc(F)c(C(F)F)n6)c(C6CC6)n5)C4)ccc3C2=O)C(=O)N1` (stereo partly drawn) [GS-802, 3-(5-(((Trans-3-(3-cyclopropyl-4-(6-(difluoromethyl)-5-fluoropyridin-2-yl)-1H-pyrazol-1-yl)cyclobutyl)methyl)amino)-1-oxoisoindolin-2-yl)piperidine-2,6-dione], the “small molecule-mediated targeted degradation of GSPT1” value in series [8] is listed as “targeted degradation of GSPT1”. In addition, the IC50 in series [4] and in series [1] was 10 to 100 nM in each case.

For `O=C1CCC(N2Cc3cc(NC[C@H]4C[C@H](n5cc(-c6ccc(F)c(C(F)(F)F)n6)c(C6CC6)n5)C4)ccc3C2=O)C(=O)N1` (stereo partly drawn) [GS-803, 3-(5-(((Trans-3-(3-cyclopropyl-4-(5-fluoro-6-(trifluoromethyl)pyridin-2-yl)-1H-pyrazol-1-yl)cyclobutyl)methyl)amino)-1-oxoisoindolin-2-yl)piperidine-2,6-dione], the “small molecule-mediated targeted degradation of GSPT1” value in series [8] was “targeted degradation of GSPT1”. Further, the IC50 in series [4] and in series [1] was under 10 nM throughout.

Regarding `Cc1ccc(Cl)c(-c2cn([C@H]3C[C@H](CNc4ccc5c(c4)CN(C4CCC(=O)NC4=O)C5=O)C3)nc2C2CC2)n1` (stereo partly drawn) [GS-805, 3-(5-(((Trans-3-(4-(3-chloro-6-methylpyridin-2-yl)-3-cyclopropyl-1H-pyrazol-1-yl)cyclobutyl)methyl)amino)-1-oxoisoindolin-2-yl)piperidine-2,6-dione], the IC50 in series [5] was under 10 nM.

On to `Cc1ccc(F)c(-c2cn([C@H]3C[C@H](CNc4ccc5c(c4)CN(C4CCC(=O)NC4=O)C5=O)C3)nc2C2CC2)n1` (stereo partly drawn) [GS-807, 3-(5-(((Trans-3-(3-cyclopropyl-4-(3-fluoro-6-methylpyridin-2-yl)-1H-pyrazol-1-yl)cyclobutyl)methyl)amino)-1-oxoisoindolin-2-yl)piperidine-2,6-dione], for which the IC50 in series [5], in series [6] and in series [7] was under 10 nM each time.

`CNc1nc(-c2cn([C@H]3C[C@H](CNc4ccc5c(c4)CN(C4CCC(=O)NC4=O)C5=O)C3)nc2C2CC2)ccc1F` (stereo partly drawn) [GS-808, 3-(5-(((Trans-3-(3-cyclopropyl-4-(5-fluoro-6-(methylamino)pyridin-2-yl)-1H-pyrazol-1-yl)cyclobutyl)methyl)amino)-1-oxoisoindolin-2-yl)piperidine-2,6-dione] registered an IC50 in series [7] of under 10 nM.

Regarding `Cc1nc(-c2cn([C@H]3C[C@H](CNc4ccc5c(c4)CN(C4CCC(=O)NC4=O)C5=O)C3)nc2C2CC2)c(F)cc1F` (stereo partly drawn) [GS-809, 3-(5-(((trans-3-(3-cyclopropyl-4-(3,5-difluoro-6-methylpyridin-2-yl)-1H-pyrazol-1-yl)cyclobutyl)methyl)amino)-1-oxoisoindolin-2-yl)piperidine-2,6-dione], in series [1], the IC50 was under 10 nM.

For the compound `Nc1cccc(-c2cn([C@H]3C[C@H](CNc4ccc5c(c4)CN(C4CCC(=O)NC4=O)C5=O)C3)nc2C2CC2)n1` (stereo partly drawn) [GS-810, 3-(5-(((Trans-3-(4-(6-aminopyridin-2-yl)-3-cyclopropyl-1H-pyrazol-1-yl)cyclobutyl)methyl)amino)-1-oxoisoindolin-2-yl)piperidine-2,6-dione], in series [1], the IC50 was 10 to 100 nM.

Turning to `Cc1nc(-c2cn([C@H]3C[C@H](CNc4ccc5c(c4)CN(C4CCC(=O)NC4=O)C5=O)C3)nc2C2CC2)c(Cl)cc1F` (stereo partly drawn) [GS-812], the IC50 in series [7] is under 10 nM.
